Results from ChEMBL document CHEMBL1141465, “The design, synthesis and structure-activity relationships of 1-aryl-4-aminoalkylisoquinolines: a novel series of CRF-1 receptor antagonists” (Bioorg Med Chem Lett, 2008).
Values after ≈ are worked out from the molar mass of the structure shown.

Experiments:
[1] = molecular target: T1, Corticotropin-releasing factor receptor 1 (Homo sapiens, UniProt P34998); assay: Displacement of [125I]sauvagine from CRF1 receptor expressed in human IMR32 cells; assay type: cell-based, IMR-32
T1 sequence (P34998 whole entry): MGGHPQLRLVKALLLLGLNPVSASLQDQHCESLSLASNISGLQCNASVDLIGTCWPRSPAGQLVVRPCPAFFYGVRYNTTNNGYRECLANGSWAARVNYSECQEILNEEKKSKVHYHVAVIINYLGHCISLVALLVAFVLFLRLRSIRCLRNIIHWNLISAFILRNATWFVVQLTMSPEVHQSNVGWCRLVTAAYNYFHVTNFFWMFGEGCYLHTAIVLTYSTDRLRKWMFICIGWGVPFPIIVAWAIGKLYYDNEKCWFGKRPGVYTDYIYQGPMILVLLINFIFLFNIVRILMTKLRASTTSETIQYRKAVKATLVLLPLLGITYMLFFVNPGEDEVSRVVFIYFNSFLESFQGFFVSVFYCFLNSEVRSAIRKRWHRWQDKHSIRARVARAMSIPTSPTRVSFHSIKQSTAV

[2] = Solubility at pH 5.4; assay type: physicochemical; conditions: buffer
[3] = Partition coefficient, log P of the compound; assay type: physicochemical; conditions: octanol/water
[4] = Half life in rat liver microsomes; assay type: ADME, Microsome
[5] = test system: Rattus norvegicus; assay: Volume of distribution in po dosed rat; assay type: ADME, organism-based; conditions: in vivo
[6] = Half life in po dosed rat; assay type: ADME, organism-based; conditions: in vivo
[7] = Cmax in po dosed rat; assay type: ADME, organism-based; design: route oral; conditions: in vivo
[8] = Oral bioavailability of rat at 20 mg/kg; assay type: ADME, organism-based; conditions: in vivo
[9] = Clearance in po dosed rat; assay type: ADME, organism-based; conditions: in vivo
[10] = Tmax in po dosed rat; assay type: ADME, organism-based; conditions: in vivo

| SMILES | Ki [1] [nM] | solubility [2] [µg/mL] | other results |
| --- | --- | --- | --- |
| CCCN(CCC)c1c(C)nc(-c2ccccc2Cl)c2ccccc12 | 1680 | – | – |
| CCCN(CC1CC1)c1c(C)nc(-c2c(C)cc(C)cc2OC)c2ccccc12 | 5 | < 0.5 | – |
| CCCN(CCC)c1cnc(-c2c(C)cc(C)cc2OC)c2ccccc12 | 49 | – | – |
| CCCN(CCN1CCCC1)c1c(C)nc(-c2c(C)cc(C)cc2OC)c2ccccc12 | 215 | 120 (≈ 278 µM) | – |
| CCCN(CCC)c1c(C)nc(-c2c(C)cc(C)cc2OCCN2CCCCC2)c2ccccc12 | 120 | 27 (≈ 57 µM) | – |
| CCCN(CCC)c1c(CC)nc(-c2c(C)cc(C)cc2OC)c2ccccc12 | 9 | – | – |
| CCCN(CCC)c1c(C)nc(-c2c(C)cc(C)cc2OCCN(C)C)c2ccccc12 | 265 | 112 (≈ 258 µM) | – |
| CCCN(CCn1ccnc1)c1c(C)nc(-c2c(C)cc(C)cc2OC)c2ccccc12 | 1060 | 107 (≈ 250 µM) | – |
| CCCN(CCC)c1c(C)nc(-c2ccc(OC(F)F)cc2OC)c2ccccc12 | 17 | – | – |
| CCCN(CCC)c1c(C)nc(-c2c(C)cc(C)cc2OCCN2CCN(C)CC2)c2ccccc12 | 524 | 135 (≈ 276 µM) | – |
| CCCN(CCC)c1c(C)nc(-c2c(C)cc(C)cc2OC)c2ccccc12 | 6 | < 0.5 | logP [3]: 4.6; half-life [4]: 4 min |
| CCCN(CCC)c1c(C)nc(-c2c(OC)cc(C(F)(F)F)cc2C(F)(F)F)c2ccccc12 | 8 | < 0.5 | logP [3]: 5.7; Vd [5]: 13 L/kg; half-life [6]: 324 min; Cmax [7]: 387 ng/mL; bioavailability [8]: 4.8%; CL/F [9]: 14.5 mL/min/kg; half-life [4]: 36 min; Tmax [10]: 42 min |
| CCCN(CCC)c1c(C)nc(-c2ccc(OC)cc2CC)c2ccccc12 | 36 | – | – |

Now from value to compound, other results behind:

| Ki [1] [nM] | solubility [2] [µg/mL] | SMILES | other results |
| --- | --- | --- | --- |
| > 10000 | – | CCCN(CCC)c1c(C)nc(-c2ccccc2)c2ccccc12 | – |
| > 10000 | – | CCCN(CCC)c1c(C)nc(-c2cccc(Cl)c2)c2ccccc12 | – |
| 30 | – | CCCN(CCC)c1c(C)nc(-c2c(C)cc(C)cc2OCCN2CCOCC2)c2ccccc12 | – |
| 173 | 105 (≈ 228 µM) | CCCN(CCC)c1c(C)nc(-c2c(C)cc(C)cc2OCCN2CCCC2)c2ccccc12 | – |
| 165 | – | CCCNc1c(C)nc(-c2c(C)cc(C)cc2OC)c2ccccc12 | – |
| 7 | < 0.5 | COc1cc(C)cc(C)c1-c1nc(C)c(N(CC2CC2)CC2CC2)c2ccccc12 | – |
| > 10000 | 103 (≈ 264 µM) | COc1cc(C)cc(C)c1-c1nc(C)c(NCCN2CCCC2)c2ccccc12 | – |
| 103 | – | CCCN(CCC)c1c(C)nc(-c2ccc(Cl)cc2Cl)c2ccccc12 | – |
| 28 | – | CCCN(CCC)c1c(C)nc(-c2ccc(OC)cc2C)c2ccccc12 | – |
| 962 | – | CCCN(CCC)c1c(C)nc(-c2ccc(Cl)cc2)c2ccccc12 | – |
| 26 | – | CCCN(CCC)c1c(C)nc(-c2c(C)cc(OC)cc2C)c2ccccc12 | – |
| 21 | – | CCCN(CCC)c1c(C)nc(-c2ccc(Cl)cc2C)c2ccccc12 | – |
| 42 | – | CCCN(CCC)c1c(C)nc(-c2ccc(OC)cc2OC)c2ccccc12 | – |
| 41 | 125 (≈ 255 µM) | CCCN(CCC)c1c(C)nc(-c2c(C)cc(C)cc2OCCN2CCC(O)CC2)c2ccccc12 | – |
| 32 | 131 (≈ 268 µM) | CCCN(CCC)c1c(C)nc(-c2c(C)cc(C)cc2OCCN2CCCC(O)C2)c2ccccc12 (stereo unspecified) | – |
